The values below come from ChEMBL document CHEMBL5113422, “Structure-based rational design enables efficient discovery of a new selective and potent AKT PROTAC degrader” (Eur J Med Chem, 2022).

Activity calls are given as the source filed them. No cut-off for these calls is given here.

In general, IC50 refers to the concentration that gives 50% inhibition. As usually defined, the DC50 is the midpoint of the concentration-degradation curve.

The test system of assay [1] is JeKo-1. The assay can be described thus: Antiproliferative activity against human Jeko-1 cells assessed as cell viability measured after 7 days by CCK-8 assay. The class given is functional, cell-based. The conditions noted are these: JeKo-1, 168 h.
Assay [2] can be described thus: Antiproliferative activity against human Mino cells assessed as cell viability measured after 7 days by CCK-8 assay. The class given is functional, cell-based. The conditions noted are these: 168 h.
The subject of assay [3] is JeKo-1. In words: Antiproliferative activity against human Jeko-1 cells expressing CRBN-knockout assessed as cell viability measured after 7 days by CCK-8 assay. Format: functional, cell-based. The conditions noted are these: JeKo-1, 168 h. On the technique in general: Tetrazolium dyes change colour on reduction, which living cells bring about.
The subject of assay [4] is MM1.S. The assay can be described thus: Antiproliferative activity against human MM1.S cells assessed as cell viability measured after 7 days by CCK-8 assay. The class given is functional, cell-based. The settings on record: 168 h.
The test system of assay [5] is MM1.S. In words: Antiproliferative activity against human MM1.S cells assessed as cell viability measured after 3 days by CCK-8 assay. Format: functional, cell-based. The conditions noted are these: 72 h.
Assay [6] addresses T1, Protein cereblon/AKT (Homo sapiens, UniProt P31751+Q9Y243+P31749+Q96SW2). The assay can be described thus: Protac activity at CRBN/Akt in human Jeko-1 cells assessed as decrease in phosphorylated GSK3beta level after 24 hrs by immunoblot analysis. The class given is cell-based. The settings on record: dose 10-1000 nM. Background: In western blotting, separated proteins are transferred to a membrane and probed.

In assay [7] the target is Protein cereblon/Zinc finger protein Aiolos (Homo sapiens) (UniProt Q96SW2+Q9UKT9). In words: Protac activity at CRBN/IKZF3 in human Jeko-1 cells assessed as IKZF3 degradation at 500 nM after 12 hrs by immunoblot analysis. Format: cell-based.
Chain of Protein cereblon/Zinc finger protein Aiolos (Homo sapiens) (Q96SW2 whole entry, looked up): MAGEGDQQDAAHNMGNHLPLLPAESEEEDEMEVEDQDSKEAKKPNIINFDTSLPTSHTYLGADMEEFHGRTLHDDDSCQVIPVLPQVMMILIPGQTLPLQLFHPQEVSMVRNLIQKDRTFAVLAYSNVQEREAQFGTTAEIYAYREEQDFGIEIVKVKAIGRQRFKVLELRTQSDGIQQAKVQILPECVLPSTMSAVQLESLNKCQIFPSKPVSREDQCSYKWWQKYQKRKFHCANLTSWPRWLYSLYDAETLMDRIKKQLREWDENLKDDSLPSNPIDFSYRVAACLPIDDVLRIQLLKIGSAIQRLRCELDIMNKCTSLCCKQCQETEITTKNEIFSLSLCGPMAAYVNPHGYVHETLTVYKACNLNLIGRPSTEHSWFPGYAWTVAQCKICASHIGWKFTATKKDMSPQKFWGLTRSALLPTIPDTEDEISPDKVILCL
Chain of Protein cereblon/Zinc finger protein Aiolos (Homo sapiens) (Q9UKT9 whole entry, looked up): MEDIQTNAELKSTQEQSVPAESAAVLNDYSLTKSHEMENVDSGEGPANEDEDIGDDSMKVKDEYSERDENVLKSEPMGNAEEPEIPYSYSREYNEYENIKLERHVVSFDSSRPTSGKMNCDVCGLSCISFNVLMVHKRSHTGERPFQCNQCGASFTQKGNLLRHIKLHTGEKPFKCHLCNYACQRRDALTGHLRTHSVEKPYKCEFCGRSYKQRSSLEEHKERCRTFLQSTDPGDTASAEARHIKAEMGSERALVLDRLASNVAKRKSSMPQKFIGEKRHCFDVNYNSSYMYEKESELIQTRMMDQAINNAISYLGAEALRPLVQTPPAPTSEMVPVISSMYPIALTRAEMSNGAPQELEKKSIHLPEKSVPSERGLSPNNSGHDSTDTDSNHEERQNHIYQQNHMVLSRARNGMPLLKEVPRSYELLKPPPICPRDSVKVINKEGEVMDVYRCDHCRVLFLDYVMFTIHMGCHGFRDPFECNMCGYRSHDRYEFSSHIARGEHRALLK
The target of assay [8] is Protein cereblon/RAC-beta serine/threonine-protein kinase (Homo sapiens) (UniProt P31751+Q96SW2). In words: Protac activity at CRBN/Akt2 in human Jeko-1 cells assessed as Akt2 degradation at 500 nM after 12 hrs by immunoblot analysis. The class given is cell-based.
Chain of Protein cereblon/RAC-beta serine/threonine-protein kinase (Homo sapiens) (P31751 whole entry, looked up): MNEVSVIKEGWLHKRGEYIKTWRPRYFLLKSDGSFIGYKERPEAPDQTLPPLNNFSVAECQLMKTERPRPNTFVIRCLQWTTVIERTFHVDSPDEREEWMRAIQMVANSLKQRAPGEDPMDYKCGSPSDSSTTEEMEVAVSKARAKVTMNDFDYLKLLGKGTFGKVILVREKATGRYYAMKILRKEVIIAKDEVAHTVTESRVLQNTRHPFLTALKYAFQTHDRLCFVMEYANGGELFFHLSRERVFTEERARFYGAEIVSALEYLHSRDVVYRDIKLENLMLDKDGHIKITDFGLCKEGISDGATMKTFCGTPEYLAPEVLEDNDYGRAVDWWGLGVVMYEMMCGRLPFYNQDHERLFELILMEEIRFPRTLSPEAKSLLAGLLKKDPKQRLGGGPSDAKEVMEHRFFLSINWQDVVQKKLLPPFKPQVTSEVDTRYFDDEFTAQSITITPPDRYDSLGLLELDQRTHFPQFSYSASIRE
Chain of Protein cereblon/RAC-beta serine/threonine-protein kinase (Homo sapiens) (Q96SW2 whole entry, looked up): as the sequence (Q96SW2 whole entry, looked up) above
For assay [9], the target named is Protein cereblon/RAC-alpha serine/threonine-protein kinase (Homo sapiens) (UniProt P31749+Q96SW2). The assay can be described thus: Protac activity at CRBN/Akt1 in human Jeko-1 cells assessed as Akt1 degradation at 500 nM after 12 hrs by immunoblot analysis. Format: cell-based.
Chain of Protein cereblon/RAC-alpha serine/threonine-protein kinase (Homo sapiens) (P31749 whole entry, looked up): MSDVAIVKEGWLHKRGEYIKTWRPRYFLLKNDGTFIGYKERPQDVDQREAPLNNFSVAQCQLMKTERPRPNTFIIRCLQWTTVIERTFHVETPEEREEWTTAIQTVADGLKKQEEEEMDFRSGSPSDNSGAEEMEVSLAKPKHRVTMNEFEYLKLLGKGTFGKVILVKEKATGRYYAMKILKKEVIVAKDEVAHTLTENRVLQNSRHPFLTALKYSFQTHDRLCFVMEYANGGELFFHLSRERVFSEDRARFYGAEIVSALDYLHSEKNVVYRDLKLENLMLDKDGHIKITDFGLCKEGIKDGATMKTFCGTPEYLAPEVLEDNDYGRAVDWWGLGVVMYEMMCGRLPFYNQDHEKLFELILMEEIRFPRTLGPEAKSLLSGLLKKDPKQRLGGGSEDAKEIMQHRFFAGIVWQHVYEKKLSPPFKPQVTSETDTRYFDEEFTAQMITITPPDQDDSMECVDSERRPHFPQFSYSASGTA
Chain of Protein cereblon/RAC-alpha serine/threonine-protein kinase (Homo sapiens) (Q96SW2 whole entry, looked up): as the sequence (Q96SW2 whole entry, looked up) above
Assay [10] has as its target T1, Protein cereblon/AKT. In words: Protac activity at CRBN/Akt in human Jeko-1 cells assessed as Akt degradation at 250 nM after 2 hrs by immunoblot analysis. Format: cell-based.
Assay [11] addresses T1, Protein cereblon/AKT. In words: Protac activity at CRBN/Akt in human Jeko-1 cells assessed as Akt degradation after 24 hrs by immunoblot analysis relative to control. Format: cell-based.
The target in assay [12] is T1, Protein cereblon/AKT. The assay can be described thus: Protac activity at CRBN/Akt in human Jeko-1 cells assessed as Akt degradation at 250 nM after 24 hrs by immunoblot analysis relative to control. The class given is cell-based.
The target of assay [13] is T1, Protein cereblon/AKT. The assay can be described thus: Protac activity at CRBN/Akt in human Jeko-1 cells assessed as decrease in Myc level after 24 hrs cotreated with Ibrutinib by immunoblot analysis. The class given is cell-based.
The subject of assay [14] is JeKo-1. The assay can be described thus: Antiproliferative activity against human Jeko-1 cells assessed as cell viability measured after 3 days cotreated with Ibrutinib by CCK-8 assay. The class given is functional, cell-based. The conditions noted are these: time 3.0 day.

T1 sequence (P31751 whole entry): as the sequence (P31751 whole entry, looked up) above
T1 sequence (Q9Y243 whole entry): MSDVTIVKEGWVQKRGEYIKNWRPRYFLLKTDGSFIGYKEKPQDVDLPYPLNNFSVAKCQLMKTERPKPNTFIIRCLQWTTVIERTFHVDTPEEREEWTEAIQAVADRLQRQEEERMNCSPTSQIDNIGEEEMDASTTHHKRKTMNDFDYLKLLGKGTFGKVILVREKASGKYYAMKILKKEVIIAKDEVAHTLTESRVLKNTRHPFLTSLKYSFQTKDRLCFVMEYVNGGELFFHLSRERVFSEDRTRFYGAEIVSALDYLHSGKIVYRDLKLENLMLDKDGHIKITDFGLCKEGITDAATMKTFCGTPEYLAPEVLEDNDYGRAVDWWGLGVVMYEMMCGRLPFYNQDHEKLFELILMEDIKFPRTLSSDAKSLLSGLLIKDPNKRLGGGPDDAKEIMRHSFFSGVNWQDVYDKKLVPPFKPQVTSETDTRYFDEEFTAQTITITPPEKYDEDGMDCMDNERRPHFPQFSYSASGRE
T1 sequence (P31749 whole entry): as the sequence (P31749 whole entry, looked up) above
T1 sequence (Q96SW2 whole entry): as the sequence (Q96SW2 whole entry, looked up) above

As to `COCCOCCOCCNc1cccc2c1C(=O)N(C1CCC(=O)NC1=O)C2=O` (stereo not given), the half-maximal inhibitory concentration (IC50) with JeKo-1 [1] was above 20000 nM; in assay [2], above 20000 nM; with JeKo-1 [3] it was above 20000 nM; with MM1.S [4], 40.3 nM; in the assay on MM1.S [5] it was 4790 nM.

`CNC(=O)C[C@@H]1C[C@@H](c2cccc(F)c2)[C@H](NC(=O)c2ccc(-c3c(Cl)cnn3C)s2)CN1`: the concentration for half-maximal inhibition (IC50) was found to be 506 nM in the assay with JeKo-1 [1]; 3370 nM in [2]; 350 nM with JeKo-1 [3]; 72.4 nM in the assay on MM1.S [4]; 72.9 nM in the assay on MM1.S [5].

On to `Cn1ncc(Cl)c1-c1cc(C(=O)N[C@@H]2CN[C@H](CC(=O)Nc3ccc(OCCOCCOCCNc4cccc5c4C(=O)N(C4CCC(=O)NC4=O)C5=O)cc3)C[C@H]2c2cccc(F)c2)oc1Cl` (stereo not given in full), for which the IC50 in the assay with JeKo-1 [1] amounted to 205 nM; in [2], 2270 nM; with JeKo-1 [3] it was 2320 nM; in the assay on MM1.S [4] it was 23.4 nM; in the assay with MM1.S [5], 79 nM. Moreover, the result (on Protein cereblon/AKT [6]; in assay [7]; in assay [8]; in [9]; on Protein cereblon/AKT [10]; at Protein cereblon/AKT [13]) was Active. For the same compound, the outcome in the assay with JeKo-1 [14] was Active. For the same compound, at Protein cereblon/AKT [11], the DC50 is 28 nM. On Protein cereblon/AKT [12], the Activity is 95%.

On to `Nc1cccc2c1CN(C1CCC(=O)NC1=O)C2=O` (stereo not given) [LENALIDOMIDE], for which the IC50 in the assay on JeKo-1 [1] was above 20000 nM; in [2] it was above 20000 nM; in the assay with JeKo-1 [3], above 20000 nM; with MM1.S [4] it was 70.2 nM; with MM1.S [5] it was above 20000 nM.

With `Cn1ncc(Cl)c1-c1ccc(C(=O)N[C@@H]2CN[C@H](CC(=O)Nc3ccc(OCCOCCOCCNc4cccc5c4C(=O)N(C4CCC(=O)NC4=O)C5=O)cc3)C[C@H]2c2cccc(F)c2)s1` (stereo not given in full), at Protein cereblon/AKT [12], the Activity is 95%.

`Nc1cccc2c1C(=O)N(C1CCC(=O)NC1=O)C2=O` (stereo not given) [POMALIDOMIDE]: the IC50 with JeKo-1 [1] was 2620 nM; in assay [2], 16500 nM; with JeKo-1 [3] it was above 20000 nM; in the assay on MM1.S [4], 21.9 nM; in the assay with MM1.S [5] it was 838 nM.
